These results are taken from patent publication US20180298344A1, “Realistic Humanized Model of Disease Matrix Environment for Evaluation of Therapeutic Reversal or Cell Fate” (Yale University, priority 2017, published 2018).

This assay deals with human microvascular pericytes (PC) on decellularized healthy lungs. As to the kind of experiment: PC on decellularized control human lung scaffolds, TGF-β1 activation with or without nintedanib: histology, α-SMA IHC, tensile testing. In kind it is cell-based. The method, then:
Lung sections were decellularized as previously described (Sun et al., Am J Physiol Lung Cell Mol Physiol, 2014, 306:L463-475; Petersen et al., Science, 2010, 329:538-541). Briefly, the lung pieces were snap frozen, sliced to 2 mm thickness, and rinsed with PBS containing sodium nitroprusside (SNP). The slices were decellularized with 8 mM CHAPS (Sigma-Aldrich, St Louis, Mo., USA), 1M NaCl, and 25 mM EDTA at 37° C. overnight. The slices were treated with 90 U/mL benzonase nuclease (Sigma) for 1 hour and stored in PBS containing 10% penicillin/streptomycin and 2% Gentamicin at 4° C. until the time of culture. For solubilization, the tissue slices were rinsed with PBS, frozen, and lyophilized. The lyophilized pieces were ground to a fine powder using a tissue grinder and digested with 1 mg/mL pepsin (Sigma) in 0.1 M HCl for 72 hours (DeQuach et al., PLoS One, 2010, 5:e13039).
Samples were fixed in 4% paraformaldehyde for 1 hour, dehydrated, embedded in paraffin, and sectioned into 5μm thick slices. Sections were stained with Masson's Trichrome, picrosirius red, and α-smooth muscle actin (SMA) by the Yale Histology Core Facility.
Decellularized lung samples from control and IPF subjects, as well as polyacrylamide hydrogels of varying crosslinking density, were analyzed using an Instron 5848 with a 10N load cell. Elongation was assessed by cross-head displacement. Strips of 10 mm (length)×1 (width) mm, measured with a digital caliper were affixed to grips and pulled until failure at a strain rate of 1%/sec. For lung samples, parenchymal regions were analyzed, and the pleura was avoided. Hydration of samples with PBS was maintained before and during the mechanical conditioning. Using sample dimensions, engineering stress and strain were calculated using the following equations:
σ=stress, F=Force, A0=initial area, ε=strain, lf=final length, l0=initial length. The Young's Modulus for the tissue was determined by dividing the engineering stress σ, by the engineering strain ε at 20% strain, within the normal range of lung inflation. Mechanical properties of the polyacrylamide hydrogels were also analyzed using a modified model of the Hertz equation using a custom made apparatus (FIG. 3) (Lauridsen et al., Technology, 2014, 2:133).
For short term (7 day) differentiation studies, PC (passage 3-7) were seeded on healthy or IPF lung tissue slices, polyacrylamide hydrogels, or 25 mm glass coverslips (VWR) at 100×10^3 cells per sample and activated with control media (non-activated), or 1 ng/mL TGF-β1 (PeproTech, Rocky Hill, N.J., USA) for 7 days (18, 19). For bleomycin activation, the cells were activated with 1 μg/mL bleomycin sulfate (Cayman Chemical, Ann Arbor, Mich.) for 1 day and the media was replaced with non-activated media for the remaining 6 days (Sava et al., Microcirculation, 2015, 22:54-67; Sterling et al., J Bio Chem, 1983, 258:14438-14444). TGF-β1 and bleomycin concentrations were based on reports consistent with activation of fibroblasts (Sava et al., Microcirculation, 2015, 22:54-67; Maroni and Davis, Bio Reprod, 2012, 87:127). Treatment with CCG-1423 (Sigma) was performed at day 0 for the full 7 days, and labeled as early treatment, or at day 7 and performed for 7 days, and labeled as late treatment. […]

Regarding `COC(=O)c1ccc2c(c1)NC(=O)/C2=C(\Nc1ccc(N(C)C(=O)CN2CCN(C)CC2)cc1)c1ccccc1` [nintedanib], the “matrix density and collagen I content” value (nintedanib, TGF-β1-activated PC on decellularized healthy lung) is on record as “reduction”. Besides, the “reduction in the number of PC expressing α-SMA” value (nintedanib, TGF-β1-activated PC on decellularized healthy lung, IHC, P<0.0001) was determined as 90.1%. Further, the “elastic modulus of the scaffold” value (nintedanib, P=0.44 compared with control lung, P=0.001 compared with TGF-β1 without nintedanib) is given as “reversion of the elastic modulus to baseline levels”.
“TGF-β1: transforming growth factor (TGF)-β1, fibrotic activator, used at 1 ng/mL”: the “ECM density and collagen I crosslinking” value (28 days of TGF-β1, Masson's trichrome and Picosirius red staining) was “increased”. Besides, the “increase in the elastic modulus of the scaffold” value (28 days of TGF-β1, PC on decellularized healthy lung, P=0.001) is listed as 8.6 fold.
